The values that follow are results of earlier work, collected in patent publication US12727761B2, “Dosimetry system for photodynamic anitmicrobial therapy device of infectious keratitis” (UNIVERSITY OF MIAMI, priority 2020, dated 2026).

The test system of series [1] is corneal infection. Conditions: RB-PDAT as experimental therapy for corneal infection.
In series [2] the test system is fungal and bacterial isolates derived from patients with infectious keratitis. The conditions noted are these: Rose Bengal photodynamic antimicrobial therapy (RB-PDAT).
The subject of series [3] is Candida albicans. The conditions noted are these: erythrosine-mediated PDT.
The test system of series [4] is keratitis derived Acanthamoeba castellanii.

SMILES strings stand for the structures.

As to `O=C([O-])c1c(Cl)c(Cl)c(Cl)c(Cl)c1-c1c2cc(I)c(=O)c(I)c-2oc2c(I)c([O-])c(I)cc12.[Na+].[Na+]` [Rose Bengal], the “patients who avoided undergoing emergency corneal transplantation” value in series [1] was “approximately 72%”. Also, in series [2], the “inhibition of fungal and bacterial isolates” value is recorded as “fully inhibit”. For the compound `O=C1OC2(c3ccccc31)c1cc(I)c(O)c(I)c1Oc1c2cc(I)c(O)c1I` [erythrosine], in series [3], the reduction in concentration is recorded as 1.97 log10.

For the compound `CN(C)c1ccc2nc3ccc(=[N+](C)C)cc-3sc2c1` [methylene blue], in series [4] (methylene blue-mediated PDT), the respiratory activity entry is “significantly reduce”. Besides, the “effects with traditional Acanthamoeba treatment regimens” value in series [4] (methylene blue-mediated PDT combined with traditional treatment regimens) is on record as “synergistic effects”.
